# Calls of active or inactive are those of the source. The rule behind the calls is not given here.
# System: Jurkat NF-kB reporter, TCR-induced, luciferase luminescence
# Assay: inhibitors of TCR-driven NF-kB activation, dose response, Jurkat cells, luminescence (AID 489035)
row,SMILES,IC50
1,COc1ccc(Cn2c(SCc3ccc(C)cc3)nc3cc(OC)c(OC)cc3c2=N)cc1Cl,3.51 µM
2,CN[C@H]1CCc2cc(OC)c(OC)c(OC)c2-c2ccc(OC)c(=O)cc21,> 80 µM (inactive)
3,COC(=O)c1ccccc1NC(=O)CSc1nc(-c2ccco2)cc(C(F)(F)F)n1,72.2 µM (inactive)
4,Cn1c(SC2=CS(=O)(=O)c3ccccc32)nc2ccccc21,1.46 µM
5,Cc1cc(NC(=O)COC(=O)c2ccc(S(=O)(=O)N3CCCc4ccccc43)cc2)no1,> 80 µM (inactive)
6,CCOc1ccc(S(=O)(=O)N2c3ccccc3CC2C)cc1 (centres undefined),8.42 µM
7,c1ccc2c(c1)CCN(c1ncnc3c1[nH]c1ccccc13)C2,24.2 µM (inactive)
8,O=C(Sc1cccc2cccnc12)c1ccccc1Br,3.21 µM
9,Cc1cc(C)cc(NC(=O)c2ccc([N+](=O)[O-])o2)c1,0.95 µM
10,COc1ccc(C2=NOC(C(=O)NCc3ccc(F)cc3)C2)cc1OC (centres undefined),> 80 µM (inactive)
11,CC1Cc2cc(-c3csc(NC(=O)Cc4cccs4)n3)ccc2N1S(C)(=O)=O (centres undefined),5.4 µM
12,CC(=O)O[C@H]1C(=O)[C@@]2(C)[C@H]([C@H](OC(=O)c3ccccc3)[C@]3(O)C[C@H](OC(=O)[C@H](O)[C@@H](NC(=O)c4ccccc4)c4ccccc4)C(C)=C1C3(C)C)[C@]1(OC(C)=O)CO[C@@H]1C[C@@H]2O,11 µM
13,CCCN(CCC)C1=CC(=[N+]2CCCC2)CC(C)(C)C1,> 80 µM (inactive)
14,COc1cc2c(c(OC)c1OC)-c1ccc(O)cc1[C@@H](NC(C)=O)CC2,> 80 µM (inactive)
15,COc1ccc(-c2ccc3oc(-c4ccc(OC)cc4)c(C#CCO)c3c2)cc1,> 80 µM (inactive)
16,N#Cc1ccc(-c2cccs2)nc1SCc1cccnc1,> 80 µM (inactive)
17,COc1cc(Cn2c(-c3nonc3N)nc3ccccc32)ccc1C,> 80 µM (inactive)
18,O=S(=O)(C/C(=C/CO)S(=O)(=O)c1ccccc1)c1ccccc1,0.77 µM
19,Cc1cccc(N2CCN(C(=O)c3ccc(CS(=O)(=O)c4ccccc4C)o3)CC2C)c1 (centres undefined),9.62 µM
20,O=C(Nc1ccccc1Cl)/C(Cl)=C(\Cl)S(=O)c1ccccc1 (centres undefined),1.77 µM
21,COc1ccc(/C=N/NC(=O)COc2ccccc2-c2ccccc2)cc1,37.9 µM (inactive)
22,O=C(NCc1ccc2c(c1)OCO2)c1cc([N+](=O)[O-])ccc1N1CCOCC1,> 80 µM (inactive)
23,CC(=O)c1c(C)[nH]c(C(=O)OCC(=O)Nc2ccc(C)cc2[N+](=O)[O-])c1C,> 80 µM (inactive)
24,c1ccc(-c2cccc(-c3ccccn3)n2)nc1,1.61 µM
25,COc1ccc(OC)c(C2CC(=O)c3c([nH]c(C(=O)OC(C)C)c3C)C2)c1 (centres undefined),> 80 µM (inactive)

row,SMILES,IC50
1,O=C(Nc1ccc(N2CCCCC2)cc1)c1ccccn1,0.46 µM
2,O=C(Nc1ccc(S(=O)(=O)N2CCN(Cc3ccccc3)CC2)cc1)c1cnccn1,> 80 µM (inactive)
3,COc1ccc(/C=C2/C(=O)OCc3cc(OC)c(OC)cc32)cc1,> 80 µM (inactive)
4,CCN(CC)c1ccc(/C=N/NC(=O)c2cccc(S(=O)(=O)Nc3ccccc3OC)c2)c(O)c1,3.37 µM
5,Oc1ccc(Nc2nc3ccccc3nc2Nc2ccc(O)cc2)cc1,2.09 µM
6,CCc1ccc(S(=O)(=O)/N=C2\C=C(Nc3ccc(O)cc3)C(=O)c3ccccc32)cc1,2.58 µM
7,O=C(Nc1nc2ccc(S(=O)(=O)N3CCCC3)cc2s1)C1CCCCC1,> 80 µM (inactive)
8,O=C(Nc1ccc(S(=O)(=O)N2CCOCC2)cc1)c1ccc(CN2CCc3ccccc3C2)cc1,12.7 µM
9,Cc1cc(-n2c(C)cc(C(=O)CSc3ncnc4ccccc34)c2C)no1,< 0.16 µM
10,Cc1ccc(C(=O)c2cc([N+](=O)[O-])ccc2N2CCCCC2)cc1,> 80 µM (inactive)
11,CCN(CC)c1ccc2nc3ccc(N)cc3[n+](-c3ccccc3)c2c1,2.62 µM
12,Clc1cccc(Cl)c1OCCOCCNCc1ccccc1,> 80 µM (inactive)
13,c1ccc(-c2noc(-c3ccc4ccccc4c3)n2)nc1,0.46 µM
14,CCOc1ccccc1NS(=O)(=O)c1ccc(-c2cnc(C3CC3)o2)cc1,6.3 µM
15,Cc1c(C)c2cccnc2c2ncccc12,2.02 µM
16,Nc1ncn([C@@H]2O[C@H](CO)[C@@H](O)[C@H]2O)c(=O)n1,10.8 µM
17,COC(=O)c1nn(-c2ccc3c(c2)CCN3C(C)=O)cc1O,1.14 µM
18,O=C(Nc1ccc(C(F)(F)F)cc1)c1cccn(Cc2ccc3c(c2)OC(F)(F)O3)c1=O,17.2 µM
19,CCC/C(O)=C1\C(=O)CC(C)(C)CC1=Nc1ccc(OC)cc1OC,> 80 µM (inactive)
20,CCCCC(=O)NC(c1ccc(N(CC)CC)cc1)c1ccc2cccnc2c1O (centres undefined),8.89 µM
21,CCOC(=O)c1ccc(Nc2nc(N)c3cc(OC)c(OC)cc3n2)cc1,> 80 µM (inactive)
22,N#C/C(=C\c1ccc(OCc2ccc(C(=O)O)cc2)cc1)C(=O)N1CCOCC1,1.55 µM
23,Cc1cccc(N=Nc2ccc(O)c3ncccc23)c1,6.14 µM
24,CCOCCOC(=O)c1[nH]c2c(c1C)C(=O)CC(c1ccccc1)C2 (centres undefined),> 80 µM (inactive)

# From PubChem BioAssay AID489035 (Sanford-Burnham Center for Chemical Genomics, 2010)
